This note sets out measurements from ChEMBL document CHEMBL4602692, “Synthesis and Biological Evaluation of Tryptamines Found in Hallucinogenic Mushrooms: Norbaeocystin, Baeocystin, Norpsilocin, and Aeruginascin” (J Nat Prod, 2020).

pEC50: −log10 of the molar value. The source made the active and inactive calls. No cut-off for these calls is given here.

For orientation: Emax means the maximal effect, on the per cent scale that the assay sets. As a reminder, the pEC50 is the EC50 on a negative log10 scale, so that one unit is a factor of ten. The term ED50 denotes the dose that gives a 50% effect, or the effect in half of the subjects.

For assay [1], the target named is 5-hydroxytryptamine receptor 2A (Homo sapiens) (UniProt P28223). Put plainly: Agonist activity at human 5-HT2A receptor expressed in Flp-In T-REx 293 cells assessed as induction of Gq-mediated calcium flux incubated for 1 hr by Flou4-AM dye based FLIPR assay relative to serotonin. In kind it is functional, cell-based. For orientation: Calcium assays in cells follow changes in intracellular calcium, usually with a dye or a luminescent sensor.
5-hydroxytryptamine receptor 2A (Homo sapiens), sequence (P28223 whole entry): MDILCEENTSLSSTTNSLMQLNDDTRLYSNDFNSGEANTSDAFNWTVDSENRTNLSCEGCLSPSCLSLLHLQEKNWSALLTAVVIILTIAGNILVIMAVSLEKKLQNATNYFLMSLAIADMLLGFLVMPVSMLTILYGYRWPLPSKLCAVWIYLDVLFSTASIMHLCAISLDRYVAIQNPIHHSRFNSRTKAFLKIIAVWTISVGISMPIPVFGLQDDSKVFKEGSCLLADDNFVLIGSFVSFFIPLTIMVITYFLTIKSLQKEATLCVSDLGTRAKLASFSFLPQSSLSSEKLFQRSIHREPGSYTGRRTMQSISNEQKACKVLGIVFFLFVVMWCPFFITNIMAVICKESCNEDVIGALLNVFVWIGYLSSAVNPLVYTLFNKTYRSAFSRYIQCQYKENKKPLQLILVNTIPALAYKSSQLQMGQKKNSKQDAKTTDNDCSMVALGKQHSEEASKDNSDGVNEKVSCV

Assay [2] deals with 5-hydroxytryptamine receptor 2A (Mus musculus, UniProt P35363). Kind of assay: Agonist activity at mouse 5-HT2A receptor expressed in Flp-In T-REx 293 cells assessed as induction of Gq-mediated calcium flux incubated for 1 hr by Flou4-AM dye based FLIPR assay. In kind it is functional, cell-based.
5-hydroxytryptamine receptor 2A, sequence (P35363 whole entry): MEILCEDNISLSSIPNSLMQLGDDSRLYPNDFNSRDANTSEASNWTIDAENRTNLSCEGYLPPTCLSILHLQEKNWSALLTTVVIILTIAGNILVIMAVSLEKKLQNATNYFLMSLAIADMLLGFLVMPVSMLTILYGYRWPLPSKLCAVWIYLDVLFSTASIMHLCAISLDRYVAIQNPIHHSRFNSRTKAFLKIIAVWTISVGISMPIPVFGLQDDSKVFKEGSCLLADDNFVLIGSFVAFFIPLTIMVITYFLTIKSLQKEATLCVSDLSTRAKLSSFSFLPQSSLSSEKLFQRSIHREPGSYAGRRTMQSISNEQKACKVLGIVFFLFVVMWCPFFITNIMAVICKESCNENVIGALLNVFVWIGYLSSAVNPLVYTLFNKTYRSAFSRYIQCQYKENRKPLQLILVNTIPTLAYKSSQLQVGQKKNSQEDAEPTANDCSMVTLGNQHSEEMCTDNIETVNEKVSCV
For assay [3], the target named is 5-hydroxytryptamine receptor 2A (Mus musculus) (UniProt P35363). Put plainly: Agonist activity at mouse 5-HT2A receptor expressed in Flp-In T-REx 293 cells assessed as induction of Gq-mediated calcium flux incubated for 1 hr by Flou4-AM dye based FLIPR assay relative to serotonin. In kind it is functional, cell-based.
5-hydroxytryptamine receptor 2A (Mus musculus), sequence (P35363 whole entry): as above
The test system of assay [4] is Mus musculus. Kind of assay: Induction of head-twitch response in C57BL/6J mouse at 0.03 to 3 mg/kg, ip measured for 20 mins. In kind it is functional, organism-based.
Assay [5] relates to Mus musculus. Kind of assay: Induction of head-twitch response in ip dosed C57BL/6J mouse measured for 20 mins. In kind it is functional.

On to `CNCCc1c[nH]c2cccc(O)c12`, for which the Emax in assay [1] was determined as 93%; in assay [3], 99%. Moreover, the pEC50 in assay [2] was 7.72.

Consider `CNCCc1c[nH]c2cccc(OP(=O)(O)O)c12`, for which, in assay [4], the result was inactive.

For the compound `CN(C)CCc1c[nH]c2cccc(O)c12` [PSILOCIN], the Emax in assay [1] is 73%; in assay [3], 72%. In addition, in assay [2], the pEC50 is 8.00.

`CN(C)CCc1c[nH]c2cccc(OP(=O)(O)O)c12` [PSILOCYBIN]: in assay [5], the Activity entry was “Dose-dependent effect” and the ED50 was 0.4 mg/kg.
